Results on one molecule are retold here after patent publication US9481676B2, “Azepino[4,5-B]indoles and methods of use” (Medivation Technologies, Inc., priority 2008, dated 2016).

In assay [1] the target is T1, human recombinant serotonin (5-Hydroxytryptamine) 5-HT6 receptor (Homo sapiens, UniProt P50406).
T1 construct: expressed in transfected cells; host or cells: human HeLa cells
Put plainly: Serotonin 5-HT6 radioligand binding ([3H]LSD). As to conditions: compound at 1 μM; read-out: Serotonin (1 μM) 5-HT6, percent inhibition of specific binding. Put shortly:
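Human recombinant 5-HT6 receptor from HeLa cells incubated with 1.5 nM [3H]LSD for 120 min at 37° C in 50 mM Tris-HCl pH 7.4, 150 mM NaCl, 2 mM ascorbic acid, 0.001% BSA. Nonspecific binding defined with 5 μM serotonin; bound ligand counted after filtration.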

Assay [2] addresses T2, human recombinant adrenergic α2B receptor (Homo sapiens, UniProt P18089).
T2 construct: expressed in transfected cells; host or cells: CHO-K1 cells
T2 sequence (P18089 1-450): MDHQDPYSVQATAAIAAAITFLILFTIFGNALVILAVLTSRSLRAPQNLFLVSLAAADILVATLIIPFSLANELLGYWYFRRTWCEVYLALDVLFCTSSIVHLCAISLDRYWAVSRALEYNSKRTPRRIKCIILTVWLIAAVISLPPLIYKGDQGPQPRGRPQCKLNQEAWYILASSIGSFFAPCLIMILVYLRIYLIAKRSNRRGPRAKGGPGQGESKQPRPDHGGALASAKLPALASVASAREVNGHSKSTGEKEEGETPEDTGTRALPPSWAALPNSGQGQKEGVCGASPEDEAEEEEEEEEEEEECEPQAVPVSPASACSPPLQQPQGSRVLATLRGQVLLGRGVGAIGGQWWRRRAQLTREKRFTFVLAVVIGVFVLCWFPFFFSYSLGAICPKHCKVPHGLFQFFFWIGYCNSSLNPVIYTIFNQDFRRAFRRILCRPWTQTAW
Put plainly: Adrenergic alpha2B radioligand binding ([3H]Rauwolscine). As to conditions: compound at 1 μM; read-out: Adrenergic (1 μM) α2B, percent inhibition of specific binding. Put shortly: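 CHO-K1-expressed receptor in Tris-HCl pH 7.4 with MgCl2, EDTA, BSA, incubated 60 min at 25° C with 2.5 nM [3H]Rauwolscine; 10 μM prazosin defines non-specific binding.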

Assay [3] has as its target T3, human recombinant adrenergic α1D receptor (Homo sapiens, UniProt P25100).
T3 construct: expressed in transfected cells; host or cells: HEK-293 cells
T3 sequence (P25100 1-572): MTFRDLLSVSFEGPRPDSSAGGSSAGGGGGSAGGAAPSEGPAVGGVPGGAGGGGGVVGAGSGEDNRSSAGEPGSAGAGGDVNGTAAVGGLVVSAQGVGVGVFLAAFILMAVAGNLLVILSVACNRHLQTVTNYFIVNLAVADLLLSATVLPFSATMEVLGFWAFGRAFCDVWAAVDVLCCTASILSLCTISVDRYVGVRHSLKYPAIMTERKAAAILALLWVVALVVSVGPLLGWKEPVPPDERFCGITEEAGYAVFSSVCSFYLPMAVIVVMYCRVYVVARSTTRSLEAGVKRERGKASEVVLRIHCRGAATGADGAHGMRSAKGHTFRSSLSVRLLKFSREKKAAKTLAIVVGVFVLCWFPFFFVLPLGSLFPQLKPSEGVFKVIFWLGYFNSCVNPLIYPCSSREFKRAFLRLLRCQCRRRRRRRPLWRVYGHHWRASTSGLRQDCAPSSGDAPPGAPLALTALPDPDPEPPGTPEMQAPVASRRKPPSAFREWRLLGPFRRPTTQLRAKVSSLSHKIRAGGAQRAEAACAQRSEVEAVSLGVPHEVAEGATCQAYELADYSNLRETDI
Put plainly: Adrenergic alpha1D radioligand binding ([3H]Prozosin). The note with it: compound at 1 μM; read-out: Adrenergic (1 μM) α1D, percent inhibition of specific binding. In a few lines:
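Membranes from HEK-293 cells expressing the human receptor in 50 mM Tris-HCl pH 7.4 were incubated 60 min at 25 °C with 0.6 nM [3H]prazosin. Nonspecific binding was defined with 10 μM phentolamine, and bound ligand measured by filtration.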

The target of assay [4] is T4, human recombinant serotonin (5-Hydroxytryptamine) 5-HT2A receptor (Homo sapiens, UniProt P28223).
T4 construct: expressed in transfected cells; host or cells: CHO-K1 cells
Put plainly: Serotonin 5-HT2A radioligand binding ([3H]Ketanserin). As to conditions: compound at 1 μM; read-out: Serotonin (1 μM) 5-HT2A, percent inhibition of specific binding. Put shortly: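 Percent inhibition of specific [3H]ketanserin (0.5 nM) binding, filtration read-out, with compounds at ≤1 μM (1% DMSO vehicle). Receptor source: recombinant human 5-HT2A in CHO-K1 cells, 50 mM Tris-HCl pH 7.4, 60 min, 25 °C; 1 μM mianserin gives nonspecific binding.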

Structures are written as SMILES.

T1 sequence (P50406 whole entry): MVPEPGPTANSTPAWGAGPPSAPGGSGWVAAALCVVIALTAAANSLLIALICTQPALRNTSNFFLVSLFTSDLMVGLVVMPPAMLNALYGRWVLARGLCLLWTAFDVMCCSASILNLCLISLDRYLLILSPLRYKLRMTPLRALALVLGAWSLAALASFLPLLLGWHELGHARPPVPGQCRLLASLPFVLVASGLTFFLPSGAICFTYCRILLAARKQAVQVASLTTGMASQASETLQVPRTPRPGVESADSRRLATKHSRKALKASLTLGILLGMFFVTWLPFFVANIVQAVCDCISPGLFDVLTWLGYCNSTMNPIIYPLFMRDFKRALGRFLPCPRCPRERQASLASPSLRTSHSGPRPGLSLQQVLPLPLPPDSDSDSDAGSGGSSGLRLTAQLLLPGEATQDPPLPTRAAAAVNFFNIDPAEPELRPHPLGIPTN
T4 sequence (P28223 whole entry): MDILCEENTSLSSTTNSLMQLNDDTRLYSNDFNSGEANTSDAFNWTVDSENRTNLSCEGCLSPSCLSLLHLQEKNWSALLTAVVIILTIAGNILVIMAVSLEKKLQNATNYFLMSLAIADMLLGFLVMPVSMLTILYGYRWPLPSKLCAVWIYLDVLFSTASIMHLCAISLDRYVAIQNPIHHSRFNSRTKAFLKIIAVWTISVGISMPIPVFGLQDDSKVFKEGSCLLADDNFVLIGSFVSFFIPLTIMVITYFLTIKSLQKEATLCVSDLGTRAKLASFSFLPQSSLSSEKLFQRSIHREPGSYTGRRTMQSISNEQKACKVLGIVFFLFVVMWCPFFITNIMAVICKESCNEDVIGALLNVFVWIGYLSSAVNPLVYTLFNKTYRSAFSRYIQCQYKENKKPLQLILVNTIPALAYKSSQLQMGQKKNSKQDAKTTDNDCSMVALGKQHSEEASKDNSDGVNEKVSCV

In general, inhibition refers to the change of the read-out against control, counted positive when it falls. Regarding `Cc1cncc(CCn2c3c(c4cc(Cl)ccc42)CCN(C)CC3)c1` [Compound No. 3, 9-chloro-3-methyl-6-(2-(5-methylpyridin-3-yl)ethyl)-1,2,3,4,5,6-hexahydroazepino[4,5-b]indole], the inhibition at 1 µM in assay [1] amounted to 92%; in assay [2], 112%; in assay [3], 89%; in assay [4], 95%.
